Measurements from ChEMBL document CHEMBL1201862, “PubChem BioAssay data set” (2004).
Blank lines part the entries; values can stand above or below the compound they belong to. Activity calls are given as the source filed them.

Key:
[1] = molecular target: T1, Nucleotide-binding oligomerization domain-containing protein 2 (Homo sapiens, UniProt Q9HC29); experiment: inhibition of NOD2-driven NF-kB reporter – cell-based, luminescence, uHTS, HEK293 (AID 1566); assay type: functional
[2] = molecular target: T1, Nucleotide-binding oligomerization domain-containing protein 2; experiment: inhibition of NOD2 signaling – set 2, SAR follow-up (AID 2475); assay type: functional
[3] = molecular target: T2, Nucleotide-binding oligomerization domain-containing protein 1 (Homo sapiens, UniProt Q9Y239); experiment: SAR analysis of compounds that inhibit NOD1 - Set 2. [Related pubchem assays (depositor defined):AID1566, AID1575, AID1578, AID1849, AID1852, AID2333, AID2335, AID2798]; assay type: functional
T2 sequence (Q9Y239 whole entry): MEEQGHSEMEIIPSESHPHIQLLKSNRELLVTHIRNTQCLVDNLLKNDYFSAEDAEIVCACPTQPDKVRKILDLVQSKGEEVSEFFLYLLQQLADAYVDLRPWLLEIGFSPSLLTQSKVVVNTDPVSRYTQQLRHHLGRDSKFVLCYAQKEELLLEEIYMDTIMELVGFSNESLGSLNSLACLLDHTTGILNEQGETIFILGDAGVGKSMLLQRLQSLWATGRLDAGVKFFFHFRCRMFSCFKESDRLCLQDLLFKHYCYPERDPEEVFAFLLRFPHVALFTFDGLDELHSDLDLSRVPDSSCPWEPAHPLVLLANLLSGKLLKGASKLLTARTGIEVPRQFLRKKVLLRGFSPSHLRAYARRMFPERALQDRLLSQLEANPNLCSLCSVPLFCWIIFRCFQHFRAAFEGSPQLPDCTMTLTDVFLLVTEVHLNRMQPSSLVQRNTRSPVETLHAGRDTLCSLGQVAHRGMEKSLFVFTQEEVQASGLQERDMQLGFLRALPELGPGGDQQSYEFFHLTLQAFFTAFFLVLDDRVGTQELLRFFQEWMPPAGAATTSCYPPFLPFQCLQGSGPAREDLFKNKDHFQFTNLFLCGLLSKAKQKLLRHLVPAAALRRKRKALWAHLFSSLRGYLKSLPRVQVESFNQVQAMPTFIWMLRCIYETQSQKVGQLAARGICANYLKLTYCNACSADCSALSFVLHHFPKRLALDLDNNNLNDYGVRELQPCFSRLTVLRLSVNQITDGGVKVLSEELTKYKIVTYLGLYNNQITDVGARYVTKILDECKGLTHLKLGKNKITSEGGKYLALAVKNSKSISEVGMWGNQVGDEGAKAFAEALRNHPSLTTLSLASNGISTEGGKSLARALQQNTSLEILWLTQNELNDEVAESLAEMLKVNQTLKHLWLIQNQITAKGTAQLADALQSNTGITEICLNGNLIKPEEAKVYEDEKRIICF

[4] = molecular target: Transitional endoplasmic reticulum ATPase (Homo sapiens, UniProt P55072, C522A); experiment: C522A mutant p97 ATPase inhibitors, dose response, counter-screen for p97 inhibitor project, biochemical, luminescence (AID 1544)
HEK293 [5] = experiment: cells; conditions: Homo sapiens
[6] = molecular target: Transitional endoplasmic reticulum ATPase (Homo sapiens, UniProt P55072); experiment: p97 ATPase inhibitors, dose response, biochemical (AID 1534)
HEK293 [7] = experiment: cells; assay type: functional, cell-based; conditions: Homo sapiens
Tumor necrosis factor [8] = molecular target: T3, Tumor necrosis factor (Homo sapiens, UniProt P01375); experiment: analog potency on TNFa NF-kB signaling – cell-based, set 2, SAR follow-up (AID 2483); assay type: functional
HEK293 [9] = experiment: cells; assay type: functional, cell-based; conditions: Homo sapiens; remark: listed apart in the source
HEK293 [10] = experiment: NOD2 signaling inhibitors in MDP-stimulated cells, cell-based, uHTS, luminescence (AID 2001); assay type: functional; conditions: Homo sapiens
[11] = molecular target: T2, Nucleotide-binding oligomerization domain-containing protein 1; experiment: blockers of NOD1 pathway activity – revised, SAR follow-up (AID 2333); assay type: functional
HEK293 [12] = experiment: inhibition of NOD1-driven NF-kB reporter – cell-based, luminescence, uHTS, primary screen (AID 1578); assay type: functional; conditions: Homo sapiens
[13] = molecular target: T1, Nucleotide-binding oligomerization domain-containing protein 2; experiment: PubChem AID 2334; assay type: functional
HEK293 [14] = experiment: SAR analysis of compounds that are cytotoxic to HEK293 - Set 2. [Related pubchem assays (depositor defined):AID1575, AID1578, AID1849, AID2001, AID2333, AID2334, AID2335, AID2337, AID2800]; assay type: functional, cell-based; conditions: Homo sapiens
HEK293 [15] = experiment: cells; assay type: functional, cell-based; conditions: Homo sapiens; remark: listed apart in the source
Tumor necrosis factor [16] = molecular target: T3, Tumor necrosis factor; experiment: analog potency on TNFa NF-kB signaling – cell-based, revised, SAR follow-up (AID 2337); assay type: functional
[17] = molecular target: T4, Kappa-type opioid receptor (Homo sapiens, UniProt P41145); experiment: SAR analysis of Antagonists of the Kappa Opioid Receptor (KOR) using an Image-Based Assay - Set 3. [Related pubchem assays (depositor defined):AID1777, AID1785]; assay type: functional
[18] = molecular target: T4, Kappa-type opioid receptor; experiment: SAR analysis of small molecule antagonists of the kappa opioid receptor via a luminescent beta-arrestin assay - Set 3. [Related pubchem assays (depositor defined):AID1777, AID1778, AID1785, AID1786, AID1966, AID2133, AID2136, AID2285, AID2495]; assay type: functional
Mu-type opioid receptor = Mu-type opioid receptor (Homo sapiens, UniProt P35372); experiment: SAR Analysis of Antagonists of the MOR Receptor using an Image-Based Assay - Set 3. [Related pubchem assays (depositor defined):AID1777, AID1785, AID1786, AID1966, AID2133, AID2136, AID2284, AID2285, AID2420]; assay type: functional
[19] = molecular target: Delta-type opioid receptor (Homo sapiens, UniProt P41143); experiment: SAR Analysis of Antagonists of the DOR Receptor using an Image-Based Assay - Set 3. [Related pubchem assays (depositor defined):AID1777, AID1785]; assay type: functional;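 also: U2OS cells expressing DOR1 and beta-arrestin GFP stimulated with 100 nM SNC80; imaging of GFP-tagged beta-arrestin moving into spots after receptor activation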
Genome polyprotein = Genome polyprotein (Hepatitis C virus, UniProt Q2Q167); experiment: disruption of hepatitis C core self-association – biochemical, TR-FRET, dose response (AID 2159); parameters: species or system Hepacivirus hominis;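 also: blocks dimerization of HCV core protein measured by TR-FRET between tagged core106 pairs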
[20] = molecular target: T5, Runt-related transcription factor 1/Core-binding factor subunit beta (Homo sapiens, UniProt Q01196+Q13951); experiment: disruptors of Runt domain/CBFb-SMMHC interaction – biochemical, FRET, Cerulean-Runt, Venus-CBFb-SMMHC, uHTS, […] (AID 1434); assay type: protein assay
[21] = molecular target: T5, Runt-related transcription factor 1/Core-binding factor subunit beta; experiment: Runt domain/CBFb-SMMHC interaction disruptors – biochemical, TR-FRET (AID 1438); assay type: protein assay

T1 sequence (Q9HC29 whole entry, the tested form may be a part): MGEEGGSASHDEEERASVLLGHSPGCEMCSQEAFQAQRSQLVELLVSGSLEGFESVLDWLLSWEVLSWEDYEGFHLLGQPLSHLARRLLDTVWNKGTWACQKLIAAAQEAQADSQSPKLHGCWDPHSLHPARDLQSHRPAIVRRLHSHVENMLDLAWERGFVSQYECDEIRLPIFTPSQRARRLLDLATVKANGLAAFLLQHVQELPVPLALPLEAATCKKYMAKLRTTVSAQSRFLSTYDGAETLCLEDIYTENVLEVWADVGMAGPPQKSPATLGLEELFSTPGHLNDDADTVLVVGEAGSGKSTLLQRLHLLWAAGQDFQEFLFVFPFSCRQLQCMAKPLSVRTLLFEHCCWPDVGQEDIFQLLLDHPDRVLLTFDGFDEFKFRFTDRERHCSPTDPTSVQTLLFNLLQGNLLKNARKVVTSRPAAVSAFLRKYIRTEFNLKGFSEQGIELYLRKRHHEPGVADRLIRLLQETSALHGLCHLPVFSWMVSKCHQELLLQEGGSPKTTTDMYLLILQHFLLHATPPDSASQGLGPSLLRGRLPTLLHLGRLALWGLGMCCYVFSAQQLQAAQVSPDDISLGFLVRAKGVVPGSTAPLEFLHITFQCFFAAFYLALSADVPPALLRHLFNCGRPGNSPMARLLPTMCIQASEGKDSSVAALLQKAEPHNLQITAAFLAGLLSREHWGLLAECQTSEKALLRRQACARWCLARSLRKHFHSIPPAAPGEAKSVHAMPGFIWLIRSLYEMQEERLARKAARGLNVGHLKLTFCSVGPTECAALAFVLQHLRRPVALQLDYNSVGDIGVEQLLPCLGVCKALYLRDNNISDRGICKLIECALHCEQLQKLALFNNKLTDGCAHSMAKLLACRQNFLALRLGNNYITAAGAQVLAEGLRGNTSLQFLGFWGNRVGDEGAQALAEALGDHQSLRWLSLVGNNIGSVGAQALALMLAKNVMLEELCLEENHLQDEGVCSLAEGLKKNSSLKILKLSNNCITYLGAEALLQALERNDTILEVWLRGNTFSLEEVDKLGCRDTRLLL
T5 sequence (Q01196 whole entry, the tested form may be a part): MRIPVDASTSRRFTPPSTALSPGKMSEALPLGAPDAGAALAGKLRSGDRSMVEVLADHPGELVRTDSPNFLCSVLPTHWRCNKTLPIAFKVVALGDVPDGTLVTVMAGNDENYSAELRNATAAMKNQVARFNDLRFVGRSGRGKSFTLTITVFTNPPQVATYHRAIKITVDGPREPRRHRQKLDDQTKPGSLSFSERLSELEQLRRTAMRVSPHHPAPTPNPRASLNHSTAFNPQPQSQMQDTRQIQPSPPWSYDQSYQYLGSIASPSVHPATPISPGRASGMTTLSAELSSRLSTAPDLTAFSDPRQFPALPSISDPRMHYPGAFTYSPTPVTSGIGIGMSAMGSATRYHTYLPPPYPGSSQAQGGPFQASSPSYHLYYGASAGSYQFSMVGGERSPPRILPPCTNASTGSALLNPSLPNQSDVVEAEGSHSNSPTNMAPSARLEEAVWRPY
T5 sequence (Q13951 whole entry, the tested form may be a part): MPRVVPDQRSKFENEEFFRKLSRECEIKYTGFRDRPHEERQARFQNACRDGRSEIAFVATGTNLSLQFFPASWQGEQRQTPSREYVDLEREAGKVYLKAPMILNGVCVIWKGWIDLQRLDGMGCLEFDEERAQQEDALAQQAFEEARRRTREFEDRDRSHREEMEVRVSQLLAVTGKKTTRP
T4 sequence (P41145 whole entry): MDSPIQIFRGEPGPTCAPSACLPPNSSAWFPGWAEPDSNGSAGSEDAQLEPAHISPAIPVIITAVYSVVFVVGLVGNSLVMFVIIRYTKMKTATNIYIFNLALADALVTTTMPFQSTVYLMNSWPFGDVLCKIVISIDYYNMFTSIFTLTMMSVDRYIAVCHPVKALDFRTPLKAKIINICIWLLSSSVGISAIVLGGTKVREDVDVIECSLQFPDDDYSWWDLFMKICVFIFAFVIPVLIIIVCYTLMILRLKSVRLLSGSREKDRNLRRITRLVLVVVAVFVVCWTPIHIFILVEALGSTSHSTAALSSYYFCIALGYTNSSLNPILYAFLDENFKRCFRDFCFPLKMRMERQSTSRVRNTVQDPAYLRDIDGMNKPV
T3 sequence (P01375 whole entry): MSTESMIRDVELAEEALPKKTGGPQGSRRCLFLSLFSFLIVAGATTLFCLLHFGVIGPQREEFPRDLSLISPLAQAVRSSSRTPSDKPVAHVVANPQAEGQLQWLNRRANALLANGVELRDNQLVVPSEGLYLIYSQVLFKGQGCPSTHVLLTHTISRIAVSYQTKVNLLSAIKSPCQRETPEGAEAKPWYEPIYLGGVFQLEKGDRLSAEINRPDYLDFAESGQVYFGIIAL
Chain of Delta-type opioid receptor (P41143 whole entry): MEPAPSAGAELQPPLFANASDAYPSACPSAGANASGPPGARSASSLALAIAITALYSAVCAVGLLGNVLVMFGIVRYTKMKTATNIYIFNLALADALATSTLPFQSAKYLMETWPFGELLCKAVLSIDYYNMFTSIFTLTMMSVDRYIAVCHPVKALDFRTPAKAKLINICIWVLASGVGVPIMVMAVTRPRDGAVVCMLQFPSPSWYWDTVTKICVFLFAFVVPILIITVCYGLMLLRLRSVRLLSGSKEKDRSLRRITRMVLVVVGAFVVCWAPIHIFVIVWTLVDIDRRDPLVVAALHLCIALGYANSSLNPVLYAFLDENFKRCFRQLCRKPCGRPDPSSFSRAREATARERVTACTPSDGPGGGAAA
Chain of Genome polyprotein (Q2Q167 whole entry, the tested form may be a part): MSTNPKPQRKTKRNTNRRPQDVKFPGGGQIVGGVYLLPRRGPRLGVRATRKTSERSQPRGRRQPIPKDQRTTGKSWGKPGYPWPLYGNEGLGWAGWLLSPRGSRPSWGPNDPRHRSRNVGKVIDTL
Chain of Mu-type opioid receptor (P35372 whole entry): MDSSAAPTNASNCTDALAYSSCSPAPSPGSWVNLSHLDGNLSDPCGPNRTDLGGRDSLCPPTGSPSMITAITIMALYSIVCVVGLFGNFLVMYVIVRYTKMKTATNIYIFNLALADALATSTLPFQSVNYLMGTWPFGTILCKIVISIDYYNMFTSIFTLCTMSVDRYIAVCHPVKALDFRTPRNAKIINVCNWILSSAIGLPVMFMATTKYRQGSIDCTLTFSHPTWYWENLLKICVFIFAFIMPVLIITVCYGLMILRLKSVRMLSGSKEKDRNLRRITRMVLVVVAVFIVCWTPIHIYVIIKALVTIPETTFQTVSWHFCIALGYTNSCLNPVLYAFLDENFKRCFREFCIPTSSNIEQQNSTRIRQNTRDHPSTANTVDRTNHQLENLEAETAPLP
Chain of Transitional endoplasmic reticulum ATPase (Homo sapiens, UniProt P55072, C522A) (P55072 2-806 C522A limits assumed): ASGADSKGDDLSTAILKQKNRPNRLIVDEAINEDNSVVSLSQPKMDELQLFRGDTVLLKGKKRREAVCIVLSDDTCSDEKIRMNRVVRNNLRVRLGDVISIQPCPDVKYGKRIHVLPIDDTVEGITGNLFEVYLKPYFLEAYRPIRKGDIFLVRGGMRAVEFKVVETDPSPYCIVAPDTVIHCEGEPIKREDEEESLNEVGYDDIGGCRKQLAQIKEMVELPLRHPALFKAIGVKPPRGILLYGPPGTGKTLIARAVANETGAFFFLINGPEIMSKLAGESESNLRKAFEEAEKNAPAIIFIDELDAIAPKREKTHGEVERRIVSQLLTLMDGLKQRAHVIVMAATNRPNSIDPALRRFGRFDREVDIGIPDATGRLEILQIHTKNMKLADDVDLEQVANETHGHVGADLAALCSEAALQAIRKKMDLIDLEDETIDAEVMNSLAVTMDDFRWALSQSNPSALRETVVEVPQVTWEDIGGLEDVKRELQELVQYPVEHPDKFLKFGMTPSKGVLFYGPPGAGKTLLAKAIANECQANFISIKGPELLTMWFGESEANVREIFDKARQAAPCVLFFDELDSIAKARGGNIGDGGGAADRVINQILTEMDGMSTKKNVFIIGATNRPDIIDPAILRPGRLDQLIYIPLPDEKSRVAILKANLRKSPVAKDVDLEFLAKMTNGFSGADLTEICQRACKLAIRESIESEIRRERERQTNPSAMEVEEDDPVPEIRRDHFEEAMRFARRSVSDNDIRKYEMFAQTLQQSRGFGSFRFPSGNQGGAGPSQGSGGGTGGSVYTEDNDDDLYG
Chain of Transitional endoplasmic reticulum ATPase (Homo sapiens, UniProt P55072) (P55072 whole entry): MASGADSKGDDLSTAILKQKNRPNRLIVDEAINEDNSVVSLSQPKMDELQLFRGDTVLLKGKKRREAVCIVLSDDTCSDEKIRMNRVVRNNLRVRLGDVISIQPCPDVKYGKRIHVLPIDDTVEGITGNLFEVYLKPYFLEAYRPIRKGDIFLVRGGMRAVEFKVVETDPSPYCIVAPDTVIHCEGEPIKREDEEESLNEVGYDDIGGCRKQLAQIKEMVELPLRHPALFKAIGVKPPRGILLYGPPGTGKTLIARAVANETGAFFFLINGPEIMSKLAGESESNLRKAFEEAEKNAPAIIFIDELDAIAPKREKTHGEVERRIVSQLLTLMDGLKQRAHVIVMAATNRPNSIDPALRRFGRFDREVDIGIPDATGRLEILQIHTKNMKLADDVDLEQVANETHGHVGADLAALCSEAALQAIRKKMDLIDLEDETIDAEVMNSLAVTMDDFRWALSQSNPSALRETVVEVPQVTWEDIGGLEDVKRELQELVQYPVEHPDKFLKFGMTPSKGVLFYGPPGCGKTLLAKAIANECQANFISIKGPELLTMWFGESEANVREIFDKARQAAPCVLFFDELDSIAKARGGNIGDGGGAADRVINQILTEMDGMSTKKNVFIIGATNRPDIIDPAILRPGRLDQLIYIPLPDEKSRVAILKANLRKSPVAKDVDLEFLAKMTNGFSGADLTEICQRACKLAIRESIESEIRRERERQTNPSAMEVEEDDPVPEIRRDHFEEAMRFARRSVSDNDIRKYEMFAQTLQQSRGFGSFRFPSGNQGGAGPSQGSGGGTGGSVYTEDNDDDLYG

SMILES: Cc1ccc(C)c(SCC(=O)OC/C(O)=C(\C#N)c2nc3ccccc3[nH]2)c1
EC50 [1]: > 20 µM (inactive) | IC50 [2]: 4.21 µM (active) | IC50 [3]: 4.55 µM (active) | IC50 [4]: > 50 µM (not active) | IC50 (HEK293 [5]): > 20 µM (inactive) | IC50 [6]: > 50 µM (not active) | IC50 (HEK293 [7]): > 20 µM (inactive) | IC50 (Tumor necrosis factor [8]): > 20 µM (inactive) | IC50 (HEK293 [9]): > 20 µM (inactive) | IC50 (HEK293 [10]): 4.92 µM (inactive) | IC50 [11]: > 20 µM (inactive) | EC50 (HEK293 [12]): > 20 µM (inactive) | IC50 [13]: > 20 µM (inactive) | IC50 (HEK293 [14]): > 20 µM (inactive) | IC50 (HEK293 [15]): > 20 µM (inactive) | IC50 (Tumor necrosis factor [16]): > 20 µM (inactive)

IC50 [17]: 173 nM (active) | IC50 [18]: 742 nM (active) | IC50 (Mu-type opioid receptor): > 32 µM (inactive) | IC50 [19]: > 32 µM (inactive)
SMILES: CCc1ccc(S(=O)(=O)NCc2ccc(C(=O)NCCN(Cc3ccc(C)cc3)C(C)C)cc2)cc1

SMILES: Cc1cccc(C(=O)/N=c2\c(C#N)cc3c(=O)n4cccc(C)c4nc3n2Cc2ccco2)c1
IC50 (Genome polyprotein): > 49.8 µM (not active) | IC50 [20]: 429 nM (active) | IC50 [21]: 6.54 µM (active)
